Test results as given in paper PMC9714921 (PLOS Pathogens, 2022).
Several values for one entry are separate records, joined by “and”; a condition that tells them apart may be missing. Equal entries are not always repeated. Where two headings read alike, the source gives them in different places.

Columns and labels:
Dme-ACR-16 = Dme-ACR-16 (Dracunculus medinensis, UniProt A0A0N4U0T6); assay: cell-based; type: cell-based
Procedure: (§1) cRNA for oocyte injection was prepared with the mMESSAGE mMACHINE T7 kit following manufacturers protocol (Ambion, USA). Concentration was determined using a Nanodrop spectrophotometer. Desired subunit combinations with associated accessory proteins were mixed and diluted with nuclease-free water to a final concentration of 250 ng/uL for each construct.
(§2) Adult female X. laevis oocyte extraction was performed in accordance with the McGill University Animal Use Protocol 2015–7758 following standard protocol. Briefly, frog ovary lobes were placed in a Ca^2+-free OR2 solution (82 mM NaCl, 2 mM KCl, 1 mM MgCl2, 5 mM HEPES buffer, pH 7.3) and manually divided into clusters of <10 oocytes with thin tweezers followed by a 90-minute incubation in 10 mg/mL collagenase type II (Sigma-Aldrich, USA). Oocytes were washed in Ca^2+-free OR2 and placed ND96 solution (NaCl 96 mM, KCl 2 mM, CaCl2 1.8 mM, MgCl2 1 mM and HEPES 5 mM, pH 7.3) supplemented with sodium pyruvate 2.5 mM [86] and incubated at 18°C until cRNA injection. Oocytes were injected with 50 nL (12.5 ng of each injected gene) of the desired cRNA subunit and accessory protein combination mix with the NanojectII (Drummond Scientific, USA). Following injection, oocytes were incubated in ND96 buffer at 18°C until electrophysiology. All electrophysiology was conducted two days post-injection, except for the expression analysis assay in which oocytes were measured every day after injection for three consecutive days.
(§3) All drugs were dissolved in recording solution (NaCl 100 mM, KCl 2.5 mM, CaCl2 1 mM, HEPES 5 mM, pH 7.3) to a stock concentration of 10 mM and diluted to their final recording concentrations. Oxantel and bephenium were first dissolved in DMSO to ensure a final recording concentration contained less than 0.1% DMSO. For agonist profiling, all drugs were diluted to a concentration of 100 μM.
(§4) Oocytes were placed individually in an RC3Z chamber (Harvard Apparatus, USA) submerged in recording solution (NaCl 100 mM, KCl 2.5 mM, CaCl2 1 mM, HEPES 5 mM, pH 7.3). The RC3Z chamber was connected to a perfusion system containing recording solution and ligand solutions. Pulled glass capillaries (World Precision Instruments, USA) were filled with 3M KCl and the tips clipped and checked for appropriate resistance (between 0.5 and 5 MΩ). A 3M KCl agar bridge grounded the oocyte bath chamber. Measurements were made using an Axon Axoclamp 900A amplifier with Digidata1550M. […] Ligand solutions were applied to the oocytes with an approximate flow rate of 1.2 m/s and current responses measured. Oocytes were exposed to the ligand solution until a distinct current peak was observed followed by a wash with the recording solution until current returned to baseline for a minimum of 10 seconds until the next ligand exposure. For BAPTA-AM exposed oocytes, oocytes were incubated in 100 μM BAPTA-AM for four hours prior to electrophysiology recording. Data was analyzed using Clampex 9.2 (Axon Instruments, USA) and statistical analysis and graphs produced in Prism (GraphPad version 9.1). T-tests were used to compare responses with error bars representing standard error. For concentration-response curves, individual oocyte current response to the different ligand concentrations were normalized to the response obtained with 300 μM. Data was fit using the Graphpad “log(agonist) vs normalized response–variable slope” equation, with 95% confidence intervals being reported. […] For examples of oocyte responses, recordings were filtered in Clampfit using the lowband pass at 40 Hz cutoff.

Tzc-ACR-16 = Tzc-ACR-16 (Thelazia callipaeda, UniProt A0A158RD20); assay: cell-based; type: cell-based
Chain of Tzc-ACR-16 (A0A158RD20 entry or part of it): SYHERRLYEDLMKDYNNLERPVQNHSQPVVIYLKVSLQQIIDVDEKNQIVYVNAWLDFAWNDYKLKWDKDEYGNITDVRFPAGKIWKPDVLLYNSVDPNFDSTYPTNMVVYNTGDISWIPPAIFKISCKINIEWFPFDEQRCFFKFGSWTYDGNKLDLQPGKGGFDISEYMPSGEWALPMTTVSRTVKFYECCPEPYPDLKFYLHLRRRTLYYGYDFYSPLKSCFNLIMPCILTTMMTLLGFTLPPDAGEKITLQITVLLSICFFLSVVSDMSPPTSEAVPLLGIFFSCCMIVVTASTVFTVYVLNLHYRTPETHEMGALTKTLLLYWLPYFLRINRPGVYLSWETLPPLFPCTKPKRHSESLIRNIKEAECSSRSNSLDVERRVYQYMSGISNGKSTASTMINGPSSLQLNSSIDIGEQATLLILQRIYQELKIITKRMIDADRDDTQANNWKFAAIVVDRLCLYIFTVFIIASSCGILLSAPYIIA
Procedure: as §1, §2, §3, §4

[1] = biological target: Asu-ACR-16-bmaICL chimera (Ascaris suum; Brugia malayi, UniProt A0A4E9FSR7+F1KYJ9); type: cell-based, A. suum (B. malayi ICL); conditions: listed as acetylcholine
Procedure: B. malayi acr-16 and accessory proteins ric-3, unc-50, unc-74 and molo-1 were cloned from adult female B. malayi cDNA received as a gift from Dr. T. Geary using the primers described in S1 Table. B. malayi eat-18 was prepared from two overlapping oligonucleotide primers. Other subunits were synthesized from their predicted genome sequence (Gene Universal, USA) (S2 Table). […] All sequences were cloned into the pTD2 oocyte expression vector. Asu-ACR-16 and Tzc-ACR-16 chimeras were constructed using appropriate restriction enzymes, reciprocal exchange through ligation and confirmed by sequencing (McLab, USA).
as §1, §2
All drugs were dissolved in recording solution (NaCl 100 mM, KCl 2.5 mM, CaCl2 1 mM, HEPES 5 mM, pH 7.3) to a stock concentration of 10 mM and diluted to their final recording concentrations. […]
Oocytes were placed individually in an RC3Z chamber (Harvard Apparatus, USA) submerged in recording solution (NaCl 100 mM, KCl 2.5 mM, CaCl2 1 mM, HEPES 5 mM, pH 7.3). […] Ligand solutions were applied to the oocytes with an approximate flow rate of 1.2 m/s and current responses measured. […] Data was analyzed using Clampex 9.2 (Axon Instruments, USA) and statistical analysis and graphs produced in Prism (GraphPad version 9.1). […]

N. americanus N-AChR = conditions: read-out: EC50 μM ACh; accessory protein Ric-3; ref [33]; cited from earlier work
[2] = No accessory protein, listed as acetylcholine
[3] = co-injected: Bma-ric-3 + Bma-eat-18
[4] = co-injected: Bma-ric-3 + Bma-molo-1
[5] = co-injected: Bma-ric-3 + Bma-unc-50 + Bma-unc-74
[6] = co-injected: Bma-ric-3 + Bma-unc-50 + Bma-unc-74 + Bma-eat-18
[7] = co-injected: Bma-ric-3 + Cel-emc-6
[8] = co-injected: Bma-ric-3 + Cel-nra-2 + Cel-nra-4
[9] = co-injected: Hco-ric-3, listed as acetylcholine
[10] = co-injected: Bma-ric-3 (reference condition)

Chain of Dme-ACR-16 (A0A0N4U0T6 entry or part of it): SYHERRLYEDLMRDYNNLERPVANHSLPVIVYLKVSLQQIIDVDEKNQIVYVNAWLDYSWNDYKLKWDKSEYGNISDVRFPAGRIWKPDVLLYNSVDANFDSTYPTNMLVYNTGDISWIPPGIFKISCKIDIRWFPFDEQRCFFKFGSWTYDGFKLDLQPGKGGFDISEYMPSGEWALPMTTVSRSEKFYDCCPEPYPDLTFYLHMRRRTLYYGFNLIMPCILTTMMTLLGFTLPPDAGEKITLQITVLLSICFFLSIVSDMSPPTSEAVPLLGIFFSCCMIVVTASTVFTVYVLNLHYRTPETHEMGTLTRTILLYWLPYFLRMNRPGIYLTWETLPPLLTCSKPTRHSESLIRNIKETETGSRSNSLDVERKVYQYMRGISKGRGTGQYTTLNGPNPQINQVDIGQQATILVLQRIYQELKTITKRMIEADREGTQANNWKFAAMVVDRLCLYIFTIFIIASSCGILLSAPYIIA

Which EC50 (Dme-ACR-16) does the source give for `CC(=O)OCC[N+](C)(C)C` [ACh, acetylcholine] here?
Its EC50 is 12.8 µM.

And the “response to 100 μM acetylcholine normalized to Day 3 response” value (Dme-ACR-16; Day 1 post-injection)?
The value was 49 ± 7%.

And the “response to 100 μM acetylcholine normalized to Day 3 response” value (Dme-ACR-16; Day 2 post-injection)?
Its value is 102 ± 7%.

And the “current response to 100 μM acetylcholine” value (Dme-ACR-16; No accessory protein)?
Its value is 1290 ± 70 nA.

And the “current response to 100 μM acetylcholine” value (Dme-ACR-16; [2])?
The value was 1290 ± 70 (n=17) nA.

And the “current response to 100 μM acetylcholine” value (Dme-ACR-16; [3])?
Its value is 2649 ± 112 (n=11) ns nA.

And the “current response to 100 μM acetylcholine” value (Dme-ACR-16; [4])?
The value was 2354 ± 108 (n=13) ns nA.

What about the “current response to 100 μM acetylcholine” value (Dme-ACR-16; [5]) of the same compound?
Its value is 2368 ± 105 (n=13) ns nA.

And the “current response to 100 μM acetylcholine” value (Dme-ACR-16; [6])?
The value was 2222 ± 62 (n=15) ns nA.

What about the “current response to 100 μM acetylcholine” value (Dme-ACR-16; [7]) of the same compound?
The value was 2183 ± 87 (n=11) ns nA.

What about the “current response to 100 μM acetylcholine” value (Dme-ACR-16; [8]) of the same compound?
Its value is 2425 ± 133 (n=12) ns nA.

What about the “current response to 100 μM acetylcholine” value (Dme-ACR-16; co-injected: Hco-ric-3) of the same compound?
Its value is 2000–2200 nA.

What about the “current response to 100 μM acetylcholine” value (Dme-ACR-16; [9]) of the same compound?
Its value is 2150 ± 59 nA and 2150 ± 59 (n=15) ns nA.

What about the EC50 (Tzc-ACR-16) of the same compound?
Its EC50 is 17.4 µM.

And the “response to 100 μM acetylcholine normalized to Day 3 response” value (Tzc-ACR-16; Day 1 post-injection)?
The value was 7 ± 1%.

And the “response to 100 μM acetylcholine normalized to Day 3 response” value (Tzc-ACR-16; Day 2 post-injection)?
The value was 47 ± 12%.

What about the “current response to 100 μM acetylcholine” value (Tzc-ACR-16; No accessory protein) of the same compound?
Its value is 0 ± 0 nA.

And the “current response to 100 μM acetylcholine” value (Tzc-ACR-16; [2])?
Its value is 0 ± 0 (n=15) nA.

And the “current response to 100 μM acetylcholine” value (Tzc-ACR-16; [10])?
The value was 818 ± 112 nA.

What about the “current response to 100 μM acetylcholine” value (Tzc-ACR-16; co-injected: Bma-ric-3 (reference condition), listed as acetylcholine) of the same compound?
The value was 818 ± 112 (n=13) nA.

And the “current response to 100 μM acetylcholine” value (Tzc-ACR-16; [3])?
Its value is 791 ± 119 (n=8) ns nA.

What about the “current response to 100 μM acetylcholine” value (Tzc-ACR-16; [4]) of the same compound?
Its value is 660 ± 76 (n=15) ns nA.

And the “current response to 100 μM acetylcholine” value (Tzc-ACR-16; [5])?
Its value is 367 ± 43 nA.

And the “current response to 100 μM acetylcholine” value (Tzc-ACR-16; [6])?
Its value is 964 ± 101 (n=15) ns nA.

And the “current response to 100 μM acetylcholine” value (Tzc-ACR-16; co-injected: Bma-ric-3 + Bma-unc-50 + Bma-unc-74, listed as acetylcholine)?
Its value is 367 ± 43 (n=15) nA.

And the “current response to 100 μM acetylcholine” value (Tzc-ACR-16; [7])?
The value was 720 ± 70 (n=13) ns nA.

And the “current response to 100 μM acetylcholine” value (Tzc-ACR-16; [8])?
Its value is 1263 ± 88 nA.

And the “current response to 100 μM acetylcholine” value (Tzc-ACR-16; co-injected: Bma-ric-3 + Cel-nra-2 + Cel-nra-4, listed as acetylcholine)?
The value was 1263 ± 88 (n=15) nA.

And the “current response to 100 μM acetylcholine” value (Tzc-ACR-16; co-injected: Hco-ric-3)?
Its value is 400–600 nA.

What about the “current response to 100 μM acetylcholine” value (Tzc-ACR-16; [9]) of the same compound?
The value was 563 ± 39 nA and 563 ± 39 (n=13) nA.

And the “current response to 100 μM acetylcholine” value ([1]; No accessory protein)?
The value was 22 ± 4 (n=14) nA.

And the “current response to 100 μM acetylcholine” value [1, 10]?
The value was 3021 ± 444 nA and 3021 ± 128 (n=12) nA.

And the “current response to 100 μM acetylcholine” value ([1]; co-injected: Bma-ric-3 + Cel-nra-2)?
Its value is 2181 ± 99 (n=14) nA.

What about the EC50 (N. americanus N-AChR) of the same compound?
The EC50 was 170 ± 19.2 µM.
